In patent publication EP4745134A1 (Jiangsu Yahong Meditech Co., Ltd., priority 2023, dated 2025):
Read-outs that look alike come from different tables or passages of the source.

Tests used:
HCT116 MTAP KO cells = test: Inhibitory activity against cell proliferation (CellTiter Glo, 6 days), HCT116 MTAP KO; assay type: cell-based; conditions: for IC50: HCT116 MTAP KO cells, 6 days, CellTiter Glo, read-out: HCT116 MTAP KO IC50; for Selectivity HCT 116-WT/ HCT116 MTAP KO: ratio of IC50 HCT116-WT / HCT116 MTAP KO
In short: (§1)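 Viability IC50s come from CellTiter Glo luminescence after 6 days' exposure to compound (8 concentrations, 4-fold steps, top 10000 nM), relative to DMSO wells. Cells were MTAP-KO or WT HCT116, seeded at 250 per well in McCoy's 5A with 10% FBS and incubated overnight before dosing.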

HCT116-WT cells = test: Inhibitory activity against cell proliferation (CellTiter Glo, 6 days), HCT116-WT; assay type: cell-based; conditions: HCT116-WT cells, 6 days, CellTiter Glo, read-out: HCT116-WT IC50
In short: as §1

Row | IC50 (HCT116 MTAP KO cells; Homo sapiens, HCT-116, 144 h) [nM] | IC50 (HCT116-WT cells; 144 h) [nM] | IC50 (HCT116 MTAP KO cells) [nM] | IC50 (HCT116-WT cells) [nM] | SMILES | Selectivity HCT 116-WT/ HCT116 MTAP KO (HCT116 MTAP KO cells)
1 | 42 | 503 | – | – | COCCN(C)c1ccc(-c2ccc(CN(C(=O)c3ccc4nc(N)c(C)cc4c3)N(C)c3ncccn3)nc2)cn1 [Example 254, 2-amino-N-((6'-((2-methoxyethyl)(methyl)amino)-[3,3'-bipyridine]-6-yl)methyl)-N',3-d imethyl-N'-(pyrimidin-2-yl)quinoline-6-carbohydrazide] | 11.98
2 | 81 | 978 | – | – | CCN(CC)c1ccc(-c2ccc(CN(C(=O)c3ccc4nc(N)c(C)cc4c3)N(C)c3ncccn3)nc2)cn1 [Example 255, 2-amino-N-((6'-(diethylamino)-[3,3'-bipyridin]-6-yl)methyl)-N',3-dimethyl-N'-(pyrimidin-2-yl)quinoline-6-carbohydrazide] | 12.07
3 | 52 | 875 | – | – | Cc1cc2cc(C(=O)N(Cc3ccc(-c4ccc(N5CCC5)nc4)cn3)N(C)c3ncccn3)ccc2nc1N [Example 256, 2-amino-N-((6'-(azetidin-1-yl)-[3,3'-bipyridin]-6-yl)methyl)-N',3-dimethyl-N'-(pyrimidin-2-yl)quinoline-6-carbohydrazide] | 16.83
4 | 76 | 1020 | – | – | Cc1cc2cc(C(=O)N(Cc3ccc(-c4ccc(N(C)C(C)C)nc4)cn3)N(C)c3ncccn3)ccc2nc1N [Example 257, 2-amino-N-((6'-(isopropyl(methyl)amino) -[3,3'-bipyridin]-6-yl)methyl)-N',3-dimet hyl-N'-(pyrimidin-2-yl)quinoline-6-carbo hydrazide] | 13.42
5 | 31 | 716 | – | – | Cc1cc2cc(C(=O)N(Cc3ccc(-c4ccc(N5CCN(C)C(=O)C5)nc4)cn3)N(C)c3ncccn3)ccc2nc1N [Example 258, 2-amino-N',3-dimethyl-N-((6'-(4-methyl-3-oxopiperazin-1-yl)-[3,3'-bipyridin]-6-yl)methyl)-N'-(pyrimidin-2-yl)quinoline-6-carbohydrazide] | 23.10
6 | 17 | 404 | – | – | Cc1cc2cc(C(=O)N(Cc3ccc(I)cn3)N(C)c3ncccn3)ccc2nc1N [Example 263, 2-amino-N-((5-iodopyridin-2-yl)methyl)-N',3-dimethyl-N'-(pyrimidin-2-yl)quinoline-6-carbohydrazide] | 23.76
7 | 3.3 | 42 | – | – | CN(c1ccccc1F)N(Cc1ccc(C(F)(F)F)cn1)C(=O)c1ccc2nc(N)c3cnn(C)c3c2c1 [Example 281, 4-amino-N'-(2-fluorophenyl)-N',1-dimethyl-N-((5-(trifluoromethyl)pyridin-2-yl)methyl)-1H-pyrazolo[4,3-c]quinoline-8-carb ohydrazide] | 12.73
8 | 66 | 1910 | – | – | Cc1cc2cc(C(=O)N(Cc3ccc(C(C)(C)F)cn3)N(C)c3ncccn3)ccc2nc1N [Example 288, 2-amino-N-((5-(2-fluoroprop-2-yl)pyridin-2-yl)methyl)-N',3-dimethyl-N'-(pyrimidin-2-yl)quinoline-6-carbohydrazide] | 28.91
9 | 25 | 666 | – | – | Cc1cc2cc(C(=O)N(Cc3ccc(C(F)(F)C(F)(F)F)cn3)N(C)c3ncccn3)ccc2nc1N [Example 293, 2-amino-N,3-dimethyl-N-((5-(perfluoroethyl)pyridin-2-yl)methyl)-N-(pyrimidin-2-yl)q uinoline-6-carbohydrazide] | 26.64
10 | 30 | 466 | – | – | [2H]C([2H])([2H])c1cc2cc(C(=O)N(Cc3ccc(C(F)(F)F)cn3)N(C)c3ncccc3F)ccc2nc1N [Example 309, 2-amino-N'-(3-fluoropyridin-2-yl)-N'-methyl-3-(methyl-d3)-N-((5-(trifluoromethyl)pyridin-2-yl)methyl)quinoline-6-carbohydrazide] | 15.53
11 | 94 | 3040 | – | – | [2H]C([2H])([2H])c1cc2cc(C(=O)N(Cc3ccc(C(F)(F)F)cn3)Nc3ncccn3)ccc2nc1N [Example 312, 2-amino-3-(methyl-D3)-N'-(pyrimidin-2-yl)-N-((5-(trifluoromethyl)pyridin-2-yl)methyl)quinoline-6-carbohydrazide] | 32.33
12 | 54 | 1350 | – | – | [2H]C([2H])([2H])c1cc2cc(C(=O)N(Cc3ccc(-c4nncs4)cn3)N(c3ncccn3)C3CC3)ccc2nc1N [Example 315, N-((5-(1,3,4-thiadiazol-2-yl)pyridin-2-yl)methyl)-2-amino-N'-cyclopropyl-3-(methyl-d3)-N'-(pyrimidin-2-yl)quinoline-6-carbohydrazide] | 24.96
13 | 150 | 4800 | – | – | Cc1cc2nc(N)c3cnn(C)c3c2cc1C(=O)N1CC(O)(C(F)(F)F)CN1c1ncccc1F (stereo not drawn) [Example 355, (4-amino-1,7-dimethyl-1H-pyrazolo[4,3-c]quinolin-8-yl)(2-(3-fluoropyridin-2-yl)-4-hydroxy-4-(trifluoromethyl)pyrazolidin-1-yl)methanone] | 32.00
14 | – | – | 105 | 3720 | Cc1cc2nc(N)c3cnn(C)c3c2cc1C(=O)N1C(C)CCN1c1ncccc1F (stereo not drawn) [Example 376, (4-amino-1,7-dimethyl-1H-pyrazolo[4,3-c]quinolin-8-yl)(2-(3-fluoropyridin-2-yl)-5-methylpyrazolidin-1-yl)methanone] | 35.48
15 | 16 | 717 | – | – | Cc1cc2nc(N)c3cnn(C)c3c2cc1C(=O)N1CC(C)CN1c1ncc(Cl)cc1F (stereo not drawn) [Example 394, (4-amino-1,7-dimethyl-1H-pyrazolo[4,3-c]quinolin-8-yl)(2-(5-chloro-3-fluoropyridin-2-yl)-4-methylpyrazolidin-1-yl)metha none] | 44.81
16 | 26 | 743 | – | – | Cn1ncc2c(N)nc3cc(Cl)c(C(=O)N4CC(C)(F)CN4c4ncc(Br)cc4F)cc3c21 (stereo not drawn) [Example 420, (4-amino-7-chloro-1-methyl-1H-pyrazolo [4,3-c]quinolin-8-yl)(2-(5-bromo-3-fluor opyridin-2-yl)-4-fluoro-4-methylpyrazolidin-1-yl)methanone] | 28.58
17 | 49 | 700 | – | – | Cn1ncc2c(N)nc3cc(Cl)c(C(=O)N4CC(C)(F)CN4c4cccc(F)n4)cc3c21 (stereo not drawn) [Example 426, (4-amino-7-chloro-1-methyl-1H-pyrazolo [4,3-c]quinolin-8-yl)(4-fluoro-2-(6-fluoropyridin-2-yl)-4-methylpyrazolidin-1-yl)m ethanone] | 14.29
18 | 12 | 321 | – | – | COC1(C)CN(C(=O)c2cc3c(cc2C)nc(N)c2cnn(C)c23)N(c2ncccc2F)C1 (stereo not drawn) [Example 428, (4-amino-1,7-dimethyl-1H-pyrazolo[4,3-c]quinolin-8-yl)(2-(3-fluoropyridin-2-yl)-4-methoxy-4-methylpyrazolin-1-yl)methanone] | 26.75
19 | 40 | 1510 | – | – | COC1CN(C(=O)c2cc3c(cc2C)nc(N)c2cnn(C)c23)N(c2ncc(Br)cc2F)C1 (stereo not drawn) [Example 438, (4-amino-1,7-dimethyl-1H-pyrazolo[4,3-c]quinolin-8-yl)(2-(5-bromo-3-fluoropyridin-2-yl)-4-methoxypyrazolidin-1-yl)met hanone] | 37.65
20 | 94 | 3040 | – | – | Cc1cc2nc(N)c3cnn(C)c3c2cc1C(=O)N1CCCN1c1ncc(C2=CCN(C)CC2)cc1F [Example 470, (4-amino-1,7-dimethyl-1H-pyrazolo[4,3-c]quinolin-8-yl)(2-(5-fluoro-1'-methyl-1', 2',3',6'-tetrahydro-[3,4'-bipyridine]-6-yl)pyrazolidin-1-yl)methanone] | 32.33
21 | 97 | 5860 | – | – | Cc1cc2nc(N)c3cnn(C)c3c2cc1C(=O)N1CCCN1c1ncc(-c2cnn(C)c2)cc1F [Example 471, (4-amino-1,7-dimethyl-1H-pyrazolo[4,3-c]quinolin-8-yl)(2-(3-fluoro-5-(1-methyl-1H-pyrazol-4-yl)pyridin-2-yl)pyrazolidin-1-yl)methanone] | 60.37
22 | 55 | 1770 | – | – | Cc1cc2nc(N)c3cnn(C)c3c2cc1C(=O)N1CCCN1c1ncc(-c2cnn(C(F)(F)F)c2)cc1F [Example 480, (4-amino-1,7-dimethyl-1H-pyrazolo[4,3-c]quinolin-8-yl)(2-(3-fluoro-5-(1-(trifluor omethyl)-1H-pyrazol-4-yl)pyridin-2-yl)pyrazolidin-1-yl)methanone] | 32.16

Row | SMILES | IC50 (HCT116 MTAP KO cells; Homo sapiens, HCT-116, 144 h) [nM] | IC50 (HCT116-WT cells; 144 h) [nM] | IC50 (HCT116 MTAP KO cells) [nM] | IC50 (HCT116-WT cells) [nM] | Selectivity HCT 116-WT/ HCT116 MTAP KO (HCT116 MTAP KO cells)
23 | Cc1cc2cc(C(=O)N(Cc3ccc(-c4ccc(N(C)CCN(C)C)nc4)cn3)N(C)c3ncccn3)ccc2nc1N [Example 260, 2-amino-N-((6'-((2-(dimethylamino)ethyl)(methyl)amino)-[3,3'-bipyridine]-6-yl)methyl) -N', 3-dimethyl-N'-(pyrimidin-2-yl)quinoline-6-carbohydrazide] | 21 | 465 | – | – | 22.14
